Legend:
Type in all cases: cell-based
[1] = tested on: HepG2 and RAW264.7 co-cultivation; assay: Western blot in HepG2 and RAW264.7 co-cultivation; conditions: 25 μmol∙L−1, 48 h
Description: L02, HepG2, and RAW264.7 cells were incubated in DMEM (Gibco, Carlsabad, CA, USA). Then, they were supplemented with 10% FBS (Gibco, Carlsbad, CA, USA) and 100 IU/mL streptomycin-penicillin (Solarbio, Beijing, China) in a CO2 chamber at 37 °C and 95% humidity. The morphology of the cells was observed using a reversed microscope (Olympus Corporation, Shinjuku, Japan) at × 200 magnifications. The Tissue Culture Plate Insert (LABSELECT, Beijing, China, Lot: 20421087A) chambers were used for HepG2 and RAW264.7-cell co-cultivation.
Protein samples were prepared using a RIPA lysis buffer. The concentration of the protein was analyzed using a nucleic acid and protein microanalyzer (Molecular Devices, San Jose, CA, USA). SDS–PAGE was performed to separate the proteins, which were then electrotransferred onto a PVDF membrane. The membrane was incubated with antibodies at 4 °C overnight. Next, the membrane was washed and incubated with an HRP-conjugated secondary antibody (Beyotime, BeiJing, China). Finally, signals were detected by the ECL method (Beyotime, BeiJing, China) and analyzed using ImageJ software.
(§1) RAW264.7 cells (1.5 × 10^5 cells/well) and HepG2 cells (4 × 10^5 cells/well) were incubated in a Tissue Culture Plate Insert (LABSELECT, Hangzhou, China) at 37 °C and 95% humidity. Raw264.7 cells were incubated in 12-well plates, and HepG2 cells were incubated in Transwell chambers. After 24 h, the cells were treated with the compound for 48 h. Then, the chamber was discarded, and RAW264.7 cells were washed twice with PBS and a fresh medium. Next, 1.5 mL/well and 100 μL/well FluoSpheresTM carboxylate (Invitrogen, Carlsbad, CA, USA) were added to the medium for 2 h in the dark. Cells were washed twice with PBS, harvested, and then resuspended in 0.5 mL PBS. Finally, the cells were measured by a FACSCalibur (Becton Dickinson, Franklin Lakes, NJ, USA). Data were analyzed using FlowJo software.

ROS in HepG2 cells = assay: H2DCFDA staining of ROS
Text: The occurrence of apoptosis is characterized by morphological events and the activation of apoptotic signaling pathways. Herein, we detected the apoptosis events of HepG2 cells by fluorescence staining and Western blotting. […] Apoptosis-related proteins, such as Bax, cleaved caspase 3, and cleaved caspase 8, were increased, and Bcl-2 was decreased (Figure 2B).
Figure 2 Compound 5 promoted the apoptosis of HepG2 cells. (A) Fluorescence image of cell apoptosis in HepG2 cells. The cells were double stained with Annexin V and PI. Early apoptotic cells were stained with Annexin V, and late apoptotic cells were stained with PI. (B) HepG2 cells were treated with Compound 5 (25 μmol∙L^−1) for 24 h, and the protein expression was detected by western blot. (C) Fluorescence image of ROS in HepG2 cells. (D) HepG2 cells were treated with Compound 5 (25 μmol∙L^−1) for 24 h, and autophagy-related protein expression and AKT/mTOR were detected by western blotting. Data are expressed as the mean ± standard deviation. * p < 0.05, ** p < 0.01, *** p < 0.001 vs. the control group.

RAW264.7 cells = assay: Phagocytosis of macrophages by flow cytometry; conditions: co-cultivation, vs control group
Description: as §1

C[C@H](O)[C@]1(O)CC[C@@]2(O)[C@]1(C)[C@H](OC(=O)/C=C/c1ccccc1)C[C@@H]1[C@@]3(C)CC[C@H](O[C@H]4C[C@H](O)[C@H](O)[C@@H](C)O4)CC3=CC[C@]12O [Compound 5, Cynsaccatol L]
Bcl2 expression ([1]; vs C and C1 groups): down-regulating | expression of cleaved-caspase 3, cleaved-caspase 8, LC3B, p62 and Bax ([1]; vs C and C1 groups): significantly upregulate | expression of CD206 and ARG-1 ([1]; western blot): downregulated | ROS levels (ROS in HepG2 cells): significantly increased | phagocytic ability of macrophages (RAW264.7 cells): significantly upregulated

Reference: publication PMC10058894, “Bioactive C21 Steroidal Glycosides from Euphorbia kansui Promoted HepG2 Cell Apoptosis via the Degradation of ATP1A1 and Inhibited Macrophage Polarization under Co-Cultivation” (Molecules, 2023)
